Literature values, collected in article PMC8510358, “Common Shortcomings in Study on Radiopharmaceutical Design Research: A Case Study of ^99mTc-Labelled Methotrexate” (Molecules, 2021).

Tested on: folate receptors
Design: method as in PMID 23851396
Conditions: in comparison to folic acid (FA); ref [3]

## CN(Cc1cnc2nc(N)nc(N)c2n1)c1ccc(C(=O)N[C@@H](CCC(=O)O)C(=O)O)cc1 [MTX, Methotrexate]
  affinity to folate receptors: noticeably lower
